Measurements reported in PubChem BioAssay AID1259407 (Chemical Carcinogenesis Research Information System (CCRIS), 2018).
Calls of active or inactive are those of the source. No rule for the calls is given here.

Test system: CCRIS mutagenicity, Ames/micronucleus/aberration tests
Experiment: CCRIS mutagenicity studies
[1] = Test System: AMES SALMONELLA TYPHIMURIUM, Strain/Indicator: TA97, Metabolic Activation: NONE, Method: STANDARD PLATE
[2] = Test System: AMES SALMONELLA TYPHIMURIUM, Strain/Indicator: TA97, Metabolic Activation: RAT, LIVER, S-9, AROCLOR 1254, Method: STANDARD PLATE
[3] = Test System: AMES SALMONELLA TYPHIMURIUM, Strain/Indicator: TA98, Metabolic Activation: NONE, Method: STANDARD PLATE
[4] = Test System: AMES SALMONELLA TYPHIMURIUM, Strain/Indicator: TA98, Metabolic Activation: RAT, LIVER, S-9, AROCLOR 1254, Method: STANDARD PLATE
[5] = Test System: AMES SALMONELLA TYPHIMURIUM, Strain/Indicator: TA100, Metabolic Activation: NONE, Method: STANDARD PLATE
[6] = Test System: AMES SALMONELLA TYPHIMURIUM, Strain/Indicator: TA100, Metabolic Activation: RAT, LIVER, S-9, AROCLOR 1254, Method: STANDARD PLATE
[7] = Test System: AMES SALMONELLA TYPHIMURIUM, Strain/Indicator: TA102, Metabolic Activation: NONE, Method: STANDARD PLATE
[8] = Test System: AMES SALMONELLA TYPHIMURIUM, Strain/Indicator: TA102, Metabolic Activation: RAT, LIVER, S-9, AROCLOR 1254, Method: STANDARD PLATE
[9] = Test System: AMES SALMONELLA TYPHIMURIUM, Strain/Indicator: TA1535, Metabolic Activation: NONE, Method: STANDARD PLATE
[10] = Test System: AMES SALMONELLA TYPHIMURIUM, Strain/Indicator: TA1535, Metabolic Activation: RAT, LIVER, S-9, AROCLOR 1254, Method: STANDARD PLATE
[11] = Test System: AMES SALMONELLA TYPHIMURIUM, Strain/Indicator: TA100, Metabolic Activation: NONE, Method: PREINCUBATION

Question: What does the source list for `CC(C)CCC[C@@H](C)[C@H]1CC[C@H]2[C@@H]3C[C@@H](O)[C@@]4(O)C[C@@H](O)CC[C@]4(C)[C@H]3CC[C@]12C`?
Answer: mutagenic call [1]: active; positive; mutagenic call [2]: inactive; negative; mutagenic call [3]: active; positive; mutagenic call [4]: inactive; negative; mutagenic call [5]: active; positive; mutagenic call [6]: inactive; negative; mutagenic call [7]: active; positive; mutagenic call [8]: inactive; negative; mutagenic call [9]: active; positive; mutagenic call [10]: active; positive; mutagenic call (Test System: CHINESE HAMSTER V-79, Strain/Indicator: V-79/8-AZAGUANINE, Metabolic Activation: NONE): active; positive; mutagenic call (Test System: CHINESE HAMSTER V-79, Strain/Indicator: V-79/OUABAIN, Metabolic Activation: NONE): inactive; negative; mutagenic call (Test System: IN VITRO CHROMOSOMAL ABERRATIONS, Strain/Indicator: CHINESE HAMSTER OVARY EPITHELIAL (CHO-K1) CELLS, Metabolic Activation: NONE): active; positive (structural changes); mutagenic call (Test System: IN VITRO CHROMOSOMAL ABERRATIONS, Strain/Indicator: CHINESE HAMSTER OVARY EPITHELIAL (CHO-K1) CELLS, Metabolic Activation: RAT, LIVER, S-9, AROCLOR 1254): active; positive (structural changes); lower response in presence of s-9

Question: For `CCC(=O)CN(CC(=O)CC)N=O`, which mutagenic call (Test System: CHINESE HAMSTER V-79, Strain/Indicator: V-79/OUABAIN, Metabolic Activation: HAMSTER, HEPATOCYTES, Method: CELL-MEDIATED) is on record?
Answer: active; positive

Question: For `CCOC(=O)Nc1cccc(OC(=O)Nc2ccccc2)c1`, which mutagenic call (Test System: Ames Salmonella typhimurium, Strain/Indicator: TA98, Metabolic Activation: None) is on record?
Answer: inactive; negative

Question: And the mutagenic call (Test System: Ames Salmonella typhimurium, Strain/Indicator: TA98, Metabolic Activation: Rat, Liver, S-9)?
Answer: inactive; negative

Question: What about the mutagenic call (Test System: Ames Salmonella typhimurium, Strain/Indicator: TA100, Metabolic Activation: None) of the same compound?
Answer: inactive; negative

Question: What about the mutagenic call (Test System: Ames Salmonella typhimurium, Strain/Indicator: TA100, Metabolic Activation: Rat, Liver, S-9) of the same compound?
Answer: inactive; negative

Question: And the mutagenic call (Test System: Ames Salmonella typhimurium, Strain/Indicator: TA1535, Metabolic Activation: None)?
Answer: inactive; negative

Question: And the mutagenic call (Test System: Ames Salmonella typhimurium, Strain/Indicator: TA1535, Metabolic Activation: Rat, Liver, S-9)?
Answer: inactive; negative

Question: And the mutagenic call (Test System: Ames Salmonella typhimurium, Strain/Indicator: TA1537, Metabolic Activation: None)?
Answer: inactive; negative

Question: What about the mutagenic call (Test System: Ames Salmonella typhimurium, Strain/Indicator: TA1537, Metabolic Activation: Rat, Liver, S-9) of the same compound?
Answer: inactive; negative

Question: What about the mutagenic call (Test System: E. coli, Strain/Indicator: WP2, Metabolic Activation: None, Method: Not reported by DPR) of the same compound?
Answer: inactive; negative

Question: And the mutagenic call (Test System: E. coli, Strain/Indicator: WP2, Metabolic Activation: Rat, Liver, S-9, Method: Not reported by DPR)?
Answer: inactive; negative

Question: How did the mutagenic call [3] turn out when `O=[N+]([O-])c1nc2ccccc2[nH]1` was run?
Answer: active; positive

Question: Which results are given for `CC(F)(F)F`?
Answer: mutagenic call [1]: inactive; negative; mutagenic call [2]: inactive; negative; mutagenic call [3]: inactive; negative; mutagenic call [4]: inactive; negative; mutagenic call [5]: inactive; negative; mutagenic call [6]: inactive; negative; mutagenic call [9]: inactive; negative; mutagenic call [10]: inactive; negative; mutagenic call (Test System: AMES SALMONELLA TYPHIMURIUM, Strain/Indicator: TA1538, Metabolic Activation: NONE, Method: STANDARD PLATE): inactive; negative; mutagenic call (Test System: AMES SALMONELLA TYPHIMURIUM, Strain/Indicator: TA1538, Metabolic Activation: RAT, LIVER, S-9, AROCLOR 1254, Method: STANDARD PLATE): inactive; negative; mutagenic call (Test System: E. COLI, Strain/Indicator: WP2 UVRA (PKM101), Metabolic Activation: NONE, Method: STANDARD PLATE): inactive; negative; mutagenic call (Test System: E. COLI, Strain/Indicator: WP2 UVRA (PKM101), Metabolic Activation: RAT, LIVER, S-9, AROCLOR 1254, Method: STANDARD PLATE): inactive; negative

Question: With `CC(=O)Nc1ccc(Oc2ccc(Cl)cc2)cc1` as the compound, how does the mutagenic call [5] read?
Answer: inactive; negative

Question: And the mutagenic call (Test System: AMES SALMONELLA TYPHIMURIUM, Strain/Indicator: TA100, Metabolic Activation: RAT, LIVER, S-9, KANECLOR 500, Method: STANDARD PLATE)?
Answer: active; positive

Question: With `Cc1ccc2c(c1)C(=O)c1cc(O)ccc1C2=O` as the compound, how does the mutagenic call (Test System: AMES SALMONELLA TYPHIMURIUM, Strain/Indicator: TA98, Metabolic Activation: NONE, Method: PREINCUBATION) read?
Answer: inactive; negative

Question: And the mutagenic call (Test System: AMES SALMONELLA TYPHIMURIUM, Strain/Indicator: TA98, Metabolic Activation: RAT, LIVER, S-9, PCB, Method: PREINCUBATION)?
Answer: active; positive

Question: And the mutagenic call [11]?
Answer: active; positive

Question: And the mutagenic call (Test System: AMES SALMONELLA TYPHIMURIUM, Strain/Indicator: TA100, Metabolic Activation: RAT, LIVER, S-9, PCB, Method: PREINCUBATION)?
Answer: active; positive

Question: With `O=C1Cc2cc3cc([N+](=O)[O-])ccc3cc2[C@H](O)[C@H]1O` as the compound, how does the mutagenic call [3] read?
Answer: inactive; negative

Question: And the mutagenic call [4]?
Answer: inactive; negative

Question: What does the source list for `COc1cc(OC)nc(NC(=O)NS(=O)(=O)c2ncccc2C(=O)N(C)C)n1`?
Answer: mutagenic call (Test System: Chinese hamster lung cells, Strain/Indicator: V79 (HPRT)/6-Thioguanine, Metabolic Activation: None, Method: Standard plate?): inactive; negative; mutagenic call (Test System: Chinese hamster lung cells, Strain/Indicator: V79 (HPRT)/6-Thioguanine, Metabolic Activation: S-9, Method: Standard plate?): inactive; negative; mutagenic call (Test System: TA97, Metabolic Activation: None, Method: Preincubation?): inactive; negative; mutagenic call (Test System: TA97, Metabolic Activation: S-9, Method: Preincubation?): inactive; negative; mutagenic call (Test System: TA98, Metabolic Activation: None, Method: Preincubation?): inactive; negative; mutagenic call (Test System: TA98, Metabolic Activation: S-9, Method: Preincubation?): inactive; negative; mutagenic call (Test System: TA100, Metabolic Activation: None, Method: Preincubation?): inactive; negative; mutagenic call (Test System: TA100, Metabolic Activation: S-9, Method: Preincubation?): inactive; negative; mutagenic call (Test System: TA102, Metabolic Activation: None, Method: Preincubation?): inactive; negative; mutagenic call (Test System: TA102, Metabolic Activation: S-9, Method: Preincubation?): inactive; negative

Question: `CNCCN(Cc1ccc(OC)cc1)c1ccccn1` was tested. Which mutagenic call [1] did it give?
Answer: inactive; negative

Question: And the mutagenic call [2]?
Answer: inactive; negative

Question: What about the mutagenic call [3] of the same compound?
Answer: inactive; negative

Question: And the mutagenic call [4]?
Answer: inactive; negative

Question: And the mutagenic call [5]?
Answer: inactive; negative

Question: What about the mutagenic call [6] of the same compound?
Answer: inactive; negative

Question: And the mutagenic call [7]?
Answer: inactive; negative

Question: And the mutagenic call [8]?
Answer: inactive; negative

Question: With `Clc1cc2ccccc2c2ccccc12` as the compound, how does the mutagenic call [3] read?
Answer: inactive; negative

Question: What about the mutagenic call [4] of the same compound?
Answer: active; positive

Question: And the mutagenic call [5]?
Answer: inactive; negative

Question: And the mutagenic call [6]?
Answer: inactive; negative

Question: For `CCCNc1snc2ccccc12`, which mutagenic call [3] is on record?
Answer: inactive; negative

Question: And the mutagenic call (Test System: AMES SALMONELLA TYPHIMURIUM, Strain/Indicator: TA98, Metabolic Activation: S-9, Method: STANDARD PLATE)?
Answer: inactive; negative

Question: What about the mutagenic call [5] of the same compound?
Answer: inactive; negative

Question: What about the mutagenic call (Test System: AMES SALMONELLA TYPHIMURIUM, Strain/Indicator: TA100, Metabolic Activation: S-9, Method: STANDARD PLATE) of the same compound?
Answer: inactive; negative

Question: What about the mutagenic call [9] of the same compound?
Answer: inactive; negative

Question: And the mutagenic call (Test System: AMES SALMONELLA TYPHIMURIUM, Strain/Indicator: TA1535, Metabolic Activation: S-9, Method: STANDARD PLATE)?
Answer: inactive; negative

Question: What about the mutagenic call (Test System: AMES SALMONELLA TYPHIMURIUM, Strain/Indicator: TA1537, Metabolic Activation: NONE, Method: STANDARD PLATE) of the same compound?
Answer: inactive; negative

Question: And the mutagenic call (Test System: AMES SALMONELLA TYPHIMURIUM, Strain/Indicator: TA1537, Metabolic Activation: S-9, Method: STANDARD PLATE)?
Answer: inactive; negative

Question: With `Cc1c(O)cc([N+](=O)[O-])cc1[N+](=O)[O-]` as the compound, how does the mutagenic call (Test System: AMES SALMONELLA TYPHIMURIUM, Strain/Indicator: TA98, Metabolic Activation: RAT, LIVER, S-9, KANECHLOR 500, Method: PREINCUBATION) read?
Answer: inactive; negative

Question: What about the mutagenic call [11] of the same compound?
Answer: inactive; negative

Question: And the mutagenic call (Test System: AMES SALMONELLA TYPHIMURIUM, Strain/Indicator: TA100, Metabolic Activation: RAT, LIVER, S-9, KANECHLOR 500, Method: PREINCUBATION)?
Answer: inactive; negative
